Patent US20240349726A1, “SUBSTITUTED 1,2,4-THIADIAZOLYL NICOTINAMIDES, SALTS OR N-OXIDES THEREOF AND THEIR USE AS HERBICIDALLY ACTIVE SUBSTANCES” (Bayer Aktiengesellschaft, priority 2021, published 2024)

Key:
Format in all cases: in vivo
[1] = test system: Digitaria sanguinalis; assay: Herbicidal pre-emergence action, DIGSA; details: 1280 g/ha, visual grading after ca. 3 weeks vs untreated controls
Text: (§1) Seeds of mono- and dicotyledonous weed plants were sown in plastic pots (double sowings with one species of mono- and one species of dicotyledonous weed plants per pot), in sandy loam, and covered with soil. The compounds according to the invention, formulated in the form of wettable powders (WP) or as emulsifiable concentrates (EC), were applied to the surface of the covering soil as an aqueous suspension or as an emulsion, with the addition of 0.5% of an additive, at an application rate of 600 litres of water per hectare (converted). Following treatment, the pots were placed in a greenhouse and kept under optimum growth conditions for the test plants. The visual grading of the damage to the test plants is carried out after ca. 3 weeks in comparison to untreated controls (herbicidal effect in percent (%): 100% effect=plants have died, 0% effect=as control plants).

[2] = test system: Veronica persica; assay: Herbicidal post-emergence action, VERPE; details: assessed visually after ca. 3 weeks vs untreated controls
Text: (§2) Seeds of mono- and dicotyledonous weed plants were sown in plastic pots (double sowings with one species of mono- and one species of dicotyledonous weed plants per pot), in sandy loam, covered with soil and grown under controlled growth conditions. 2 to 3 weeks after sowing, the test plants were sprayed in the single-leaf stage. The compounds according to the invention, formulated in the form of wettable powders (WP) or as emulsifiable concentrates (EC), were sprayed onto the green plant parts as an aqueous suspension or as an emulsion, with the addition of 0.5% of an additive, at an application rate of 600 litres of water per hectare (converted). The test plants were placed in the greenhouse for ca. 3 weeks under optimum growth conditions, and then the effect of the preparations is assessed visually in comparison with untreated controls (herbicidal effect in percent (%): 100% effect=plants have died, 0% effect=as control plants). […]

[3] = test system: Stellaria media; assay: Herbicidal pre-emergence action, STEME; details: visual grading after ca. 3 weeks vs untreated controls
Text: as §1, with “plants). Seeds of mono- and dicotyledonous weed plants were sown in plastic pots (double sowings with one species of mono- and one species of dicotyledonous weed plants per pot), in sandy loam, and covered with soil. The compounds according to the invention, formulated in the form of wettable powders (WP) or as emulsifiable concentrates (EC), were applied to the surface of the covering soil as an aqueous suspension or as an emulsion, with the addition of 0.5% of an additive, at an application rate of 600 litres of water per hectare (converted). Following treatment, the pots were placed in a greenhouse and kept under optimum growth conditions for the test plants. The visual grading of the damage to the test plants is carried out after ca. 3 weeks in comparison to untreated controls (herbicidal effect in percent (%): 100% effect=plants have died, 0% effect=as control plants).” for “plants).”

[4] = test system: Amaranthus retroflexus; assay: Herbicidal pre-emergence action, AMARE; details: visual grading after ca. 3 weeks vs untreated controls
Text: as §1, with “plants). Seeds of mono- and dicotyledonous weed plants were sown in plastic pots (double sowings with one species of mono- and one species of dicotyledonous weed plants per pot), in sandy loam, and covered with soil. The compounds according to the invention, formulated in the form of wettable powders (WP) or as emulsifiable concentrates (EC), were applied to the surface of the covering soil as an aqueous suspension or as an emulsion, with the addition of 0.5% of an additive, at an application rate of 600 litres of water per hectare (converted). Following treatment, the pots were placed in a greenhouse and kept under optimum growth conditions for the test plants. The visual grading of the damage to the test plants is carried out after ca. 3 weeks in comparison to untreated controls (herbicidal effect in percent (%): 100% effect=plants have died, 0% effect=as control plants).” for “plants).”

[5] = test system: Kochia scoparia; assay: Herbicidal post-emergence action, KCHSC; details: 1280 g/ha, assessed visually after ca. 3 weeks vs untreated controls
Text: as §2

[6] = test system: Poa annua; assay: Herbicidal pre-emergence action, POAAN; details: visual grading after ca. 3 weeks vs untreated controls
Text: as §1, with “plants). Seeds of mono- and dicotyledonous weed plants were sown in plastic pots (double sowings with one species of mono- and one species of dicotyledonous weed plants per pot), in sandy loam, and covered with soil. The compounds according to the invention, formulated in the form of wettable powders (WP) or as emulsifiable concentrates (EC), were applied to the surface of the covering soil as an aqueous suspension or as an emulsion, with the addition of 0.5% of an additive, at an application rate of 600 litres of water per hectare (converted). Following treatment, the pots were placed in a greenhouse and kept under optimum growth conditions for the test plants. The visual grading of the damage to the test plants is carried out after ca. 3 weeks in comparison to untreated controls (herbicidal effect in percent (%): 100% effect=plants have died, 0% effect=as control plants).” for “plants).”

[7] = test system: Lolium rigidum; assay: Herbicidal pre-emergence action, LOLRI; details: visual grading after ca. 3 weeks vs untreated controls
Text: as §1, with “plants). Seeds of mono- and dicotyledonous weed plants were sown in plastic pots (double sowings with one species of mono- and one species of dicotyledonous weed plants per pot), in sandy loam, and covered with soil. The compounds according to the invention, formulated in the form of wettable powders (WP) or as emulsifiable concentrates (EC), were applied to the surface of the covering soil as an aqueous suspension or as an emulsion, with the addition of 0.5% of an additive, at an application rate of 600 litres of water per hectare (converted). Following treatment, the pots were placed in a greenhouse and kept under optimum growth conditions for the test plants. The visual grading of the damage to the test plants is carried out after ca. 3 weeks in comparison to untreated controls (herbicidal effect in percent (%): 100% effect=plants have died, 0% effect=as control plants).” for “plants).”

[8] = test system: Stellaria media; assay: Herbicidal post-emergence action, STEME; details: assessed visually after ca. 3 weeks vs untreated controls
Text: as §2

[9] = test system: Kochia scoparia; assay: Herbicidal pre-emergence action, KCHSC; details: 1280 g/ha, visual grading after ca. 3 weeks vs untreated controls
Text: as §1, with “plants). Seeds of mono- and dicotyledonous weed plants were sown in plastic pots (double sowings with one species of mono- and one species of dicotyledonous weed plants per pot), in sandy loam, and covered with soil. The compounds according to the invention, formulated in the form of wettable powders (WP) or as emulsifiable concentrates (EC), were applied to the surface of the covering soil as an aqueous suspension or as an emulsion, with the addition of 0.5% of an additive, at an application rate of 600 litres of water per hectare (converted). Following treatment, the pots were placed in a greenhouse and kept under optimum growth conditions for the test plants. The visual grading of the damage to the test plants is carried out after ca. 3 weeks in comparison to untreated controls (herbicidal effect in percent (%): 100% effect=plants have died, 0% effect=as control plants).” for “plants).”

[10] = test system: Poa annua; assay: Herbicidal post-emergence action, POAAN; details: assessed visually after ca. 3 weeks vs untreated controls
Text: as §2

[11] = test system: Matricaria inodora; assay: Herbicidal pre-emergence action, MATIN; details: visual grading after ca. 3 weeks vs untreated controls
Text: as §1, with “plants). Seeds of mono- and dicotyledonous weed plants were sown in plastic pots (double sowings with one species of mono- and one species of dicotyledonous weed plants per pot), in sandy loam, and covered with soil. The compounds according to the invention, formulated in the form of wettable powders (WP) or as emulsifiable concentrates (EC), were applied to the surface of the covering soil as an aqueous suspension or as an emulsion, with the addition of 0.5% of an additive, at an application rate of 600 litres of water per hectare (converted). Following treatment, the pots were placed in a greenhouse and kept under optimum growth conditions for the test plants. The visual grading of the damage to the test plants is carried out after ca. 3 weeks in comparison to untreated controls (herbicidal effect in percent (%): 100% effect=plants have died, 0% effect=as control plants).” for “plants).”

[12] = test system: Lolium rigidum; assay: Herbicidal post-emergence action, LOLRI; details: 1280 g/ha, assessed visually after ca. 3 weeks vs untreated controls
Text: as §2

[13] = test system: Amaranthus retroflexus; assay: Herbicidal post-emergence action, AMARE; details: assessed visually after ca. 3 weeks vs untreated controls
Text: as §2

[14] = test system: Setaria viridis; assay: Herbicidal pre-emergence action, SETVI; details: 1280 g/ha, visual grading after ca. 3 weeks vs untreated controls
Text: as §1

[15] = test system: Echinochloa crus-galli; assay: Herbicidal post-emergence action, ECHCG; details: 1280 g/ha, assessed visually after ca. 3 weeks vs untreated controls
Text: Seeds of mono- and dicotyledonous weed plants were sown in plastic pots (double sowings with one species of mono- and one species of dicotyledonous weed plants per pot), in sandy loam, covered with soil and grown under controlled growth conditions. 2 to 3 weeks after sowing, the test plants were sprayed in the single-leaf stage. The compounds according to the invention, formulated in the form of wettable powders (WP) or as emulsifiable concentrates (EC), were sprayed onto the green plant parts as an aqueous suspension or as an emulsion, with the addition of 0.5% of an additive, at an application rate of 600 litres of water per hectare (converted). The test plants were placed in the greenhouse for ca. 3 weeks under optimum growth conditions, and then the effect of the preparations is assessed visually in comparison with untreated controls (herbicidal effect in percent (%): 100% effect=plants have died, 0% effect=as control plants).

[16] = test system: Matricaria inodora; assay: Herbicidal post-emergence action, MATIN; details: 1280 g/ha, assessed visually after ca. 3 weeks vs untreated controls
Text: as §2

[17] = test system: Abutilon theophrasti; assay: Herbicidal pre-emergence action, ABUTH; details: 1280 g/ha, visual grading after ca. 3 weeks vs untreated controls
Text: as §1

## O=C(Nc1ncns1)c1c(C(F)(F)F)ccnc1C1CC1 [Example I-005]
[1]
  herbicidal effect DIGSA: 90%
[2]; 320 g/ha
  herbicidal effect VERPE: 100%
[2]; 1280 g/ha
  herbicidal effect VERPE: 100%
[3]; 320 g/ha
  herbicidal effect STEME: 100%
[3]; 1280 g/ha
  herbicidal effect STEME: 100%
[4]; 1280 g/ha
  herbicidal effect AMARE: 100%
[5]
  herbicidal effect KCHSC: 90%
[6]; 320 g/ha
  herbicidal effect POAAN: 100%
[6]; 1280 g/ha
  herbicidal effect POAAN: 100%
[7]; 1280 g/ha
  herbicidal effect LOLRI: 100%
[8]; 320 g/ha
  herbicidal effect STEME: 90%
[8]; 1280 g/ha
  herbicidal effect STEME: 90%
[9]
  herbicidal effect KCHSC: 100%
[10]; 320 g/ha
  herbicidal effect POAAN: 100%
[10]; 1280 g/ha
  herbicidal effect POAAN: 100%
[11]; 1280 g/ha
  herbicidal effect MATIN: 100%

## CC(C)c1ccnc(F)c1C(=O)Nc1ncns1 [Example I-025]
[12]
  herbicidal effect LOLRI: 90%
[2]; 1280 g/ha
  herbicidal effect VERPE: 90%
[3]; 320 g/ha
  herbicidal effect STEME: 90%
[3]; 1280 g/ha
  herbicidal effect STEME: 90%
[4]; 320 g/ha
  herbicidal effect AMARE: 90%
[4]; 1280 g/ha
  herbicidal effect AMARE: 100%
[7]; 320 g/ha
  herbicidal effect LOLRI: 90%
[7]; 1280 g/ha
  herbicidal effect LOLRI: 100%
[13]; 320 g/ha
  herbicidal effect AMARE: 90%
[13]; 1280 g/ha
  herbicidal effect AMARE: 100%
[8]; 320 g/ha
  herbicidal effect STEME: 90%
[8]; 1280 g/ha
  herbicidal effect STEME: 90%
[14]
  herbicidal effect SETVI: 90%
[15]
  herbicidal effect ECHCG: 90%
[16]
  herbicidal effect MATIN: 90%
[9]
  herbicidal effect KCHSC: 90%
[17]
  herbicidal effect ABUTH: 100%
[11]; 320 g/ha
  herbicidal effect MATIN: 100%
[11]; 1280 g/ha
  herbicidal effect MATIN: 100%
